Read-outs that look alike come from different tables or passages of the source.
Key:
Format in all cases: in vivo
[1] = tested on: ryegrass, Italian (Italian ryegrass, Lolium multiflorum); assay: Test A preemergence; conditions: Lolium multiflorum, pre-emergence, 240 h, preemergence, 0 to 100 scale where 0 is no effect and 100 is complete control, read-out: Ryegrass, Italian plant response rating; for pest or weed control at 125 g/ha: 125 g ai/ha, approx. 10 d; for pest or weed control at 500 g/ha: 500 g ai/ha
Summary of the method: (§1)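 Ratings of 0 (no effect) to 100 (complete control) come from visual comparison with untreated controls roughly 10 d after treatment. Test chemicals, formulated in a non-phytotoxic solvent mixture with surfactant, were applied either as a preemergence directed soil spray on seeded soil or postemergence to one- to two-leaf plants 2 to 10 cm tall.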

[2] = tested on: Kochia (Kochia scoparia); assay: Test A preemergence; conditions: Bassia scoparia, pre-emergence, 240 h, preemergence, 0 to 100 scale where 0 is no effect and 100 is complete control, read-out: Kochia plant response rating; for pest or weed control at 125 g/ha: 125 g ai/ha, approx. 10 d; for pest or weed control at 500 g/ha: 500 g ai/ha
Summary of the method: as §1

[3] = tested on: barnyardgrass (Echinochloa crus-galli); assay: Test A preemergence; conditions: Echinochloa crus-galli, pre-emergence, 240 h, preemergence, 0 to 100 scale where 0 is no effect and 100 is complete control, read-out: Barnyardgrass plant response rating; for pest or weed control at 125 g/ha: 125 g ai/ha, approx. 10 d; for pest or weed control at 500 g/ha: 500 g ai/ha
Summary of the method: as §1

[4] = tested on: pigweed (Amaranthus retroflexus); assay: Test A preemergence; conditions: Amaranthus retroflexus, pre-emergence, 240 h, preemergence, 0 to 100 scale where 0 is no effect and 100 is complete control, read-out: Pigweed plant response rating; for pest or weed control at 125 g/ha: 125 g ai/ha, approx. 10 d; for pest or weed control at 500 g/ha: 500 g ai/ha
[5] = tested on: ragweed (common ragweed, Ambrosia elatior); assay: Test A preemergence; conditions: Ambrosia artemisiifolia, pre-emergence, 240 h, preemergence, 0 to 100 scale where 0 is no effect and 100 is complete control, read-out: Ragweed plant response rating; for pest or weed control at 125 g/ha: 125 g ai/ha, approx. 10 d; for pest or weed control at 500 g/ha: 500 g ai/ha
Summary of the method: as §1

[6] = tested on: giant foxtail (Setaria faberii); assay: Test A preemergence; conditions: Setaria faberi, pre-emergence, 240 h, preemergence, 0 to 100 scale where 0 is no effect and 100 is complete control, read-out: Foxtail, Giant plant response rating; for pest or weed control at 125 g/ha: 125 g ai/ha, approx. 10 d; for pest or weed control at 500 g/ha: 500 g ai/ha
Summary of the method: as §1

[7] = tested on: ryegrass, Italian (Italian ryegrass, Lolium multiflorum); assay: Test A postemergence; conditions: Lolium multiflorum, post-emergence, 240 h, postemergence; for pest or weed control at 125 g/ha: 125 g ai/ha, visual injury vs untreated controls after approx. 10 d, 0 = no effect, 100 = complete control, read-out: Ryegrass, Italian plant response rating (0 to 100 scale); for pest or weed control at 500 g/ha: 500 g ai/ha, 0 to 100 scale, 0 is no effect, 100 is complete control, read-out: Ryegrass, Italian plant response rating
Summary of the method: as §1

[8] = tested on: Kochia (Kochia scoparia); assay: Test A postemergence; conditions: Bassia scoparia, post-emergence, 240 h, postemergence; for pest or weed control at 125 g/ha: 125 g ai/ha; for pest or weed control at 500 g/ha: 500 g ai/ha, 0 to 100 scale, 0 is no effect, 100 is complete control
Summary of the method: as §1

[9] = tested on: barnyardgrass (Echinochloa crus-galli); assay: Test A postemergence; conditions: Echinochloa crus-galli, post-emergence, 240 h, postemergence; for pest or weed control at 125 g/ha: 125 g ai/ha; for pest or weed control at 500 g/ha: 500 g ai/ha, 0 to 100 scale, 0 is no effect, 100 is complete control
Summary of the method: as §1

[10] = tested on: corn (Zea mays); assay: Test A postemergence; conditions: Zea mays, post-emergence, 240 h, postemergence; for plant injury at 125 g/ha: 125 g ai/ha; for plant injury at 500 g/ha: 500 g ai/ha, 0 to 100 scale, 0 is no effect, 100 is complete control
Summary of the method: as §1

[11] = tested on: wheat (Triticum aestivum); assay: Test A postemergence; conditions: Triticum aestivum, post-emergence, 240 h, postemergence; for plant injury at 125 g/ha: 125 g ai/ha, visual injury vs untreated controls after approx. 10 d, 0 = no effect, 100 = complete control, read-out: Wheat plant response rating (0 to 100 scale); for plant injury at 500 g/ha: 500 g ai/ha, 0 to 100 scale, 0 is no effect, 100 is complete control, read-out: Wheat plant response rating
Summary of the method: as §1

[12] = tested on: pigweed (Amaranthus retroflexus); assay: Test A postemergence; conditions: Amaranthus retroflexus, post-emergence, 240 h, postemergence; for pest or weed control at 125 g/ha: 125 g ai/ha, visual injury vs untreated controls after approx. 10 d, 0 = no effect, 100 = complete control, read-out: Pigweed plant response rating (0 to 100 scale); for pest or weed control at 500 g/ha: 500 g ai/ha, 0 to 100 scale, 0 is no effect, 100 is complete control, read-out: Pigweed plant response rating
Summary of the method: as §1

[13] = tested on: Galium (catchweed bedstraw, Galium aparine); assay: Test A postemergence; conditions: Galium, post-emergence, 240 h, postemergence; for pest or weed control at 125 g/ha: 125 g ai/ha; for pest or weed control at 500 g/ha: 500 g ai/ha, 0 to 100 scale, 0 is no effect, 100 is complete control
Summary of the method: as §1

[14] = tested on: ragweed (common ragweed, Ambrosia elatior); assay: Test A postemergence; conditions: Ambrosia artemisiifolia, post-emergence, 240 h, postemergence; for pest or weed control at 125 g/ha: 125 g ai/ha, visual injury vs untreated controls after approx. 10 d, 0 = no effect, 100 = complete control, read-out: Ragweed plant response rating (0 to 100 scale); for pest or weed control at 500 g/ha: 500 g ai/ha, 0 to 100 scale, 0 is no effect, 100 is complete control, read-out: Ragweed plant response rating
Summary of the method: as §1

[15] = tested on: giant foxtail (Setaria faberii); assay: Test A postemergence; conditions: Setaria faberi, post-emergence, 240 h, postemergence; for pest or weed control at 125 g/ha: 125 g ai/ha; for pest or weed control at 500 g/ha: 500 g ai/ha, 0 to 100 scale, 0 is no effect, 100 is complete control
Summary of the method: as §1

[16] = tested on: blackgrass (Alopecurus myosuroides); assay: Test A postemergence; conditions: Alopecurus myosuroides, post-emergence, 240 h, postemergence; for pest or weed control at 125 g/ha: 125 g ai/ha; for pest or weed control at 500 g/ha: 500 g ai/ha, 0 to 100 scale, 0 is no effect, 100 is complete control
Summary of the method: as §1

[17] = read-out: Kochia plant response rating
[18] = read-out: Barnyardgrass plant response rating
[19] = read-out: Corn plant response rating
[20] = read-out: Galium plant response rating
[21] = read-out: Foxtail, Giant plant response rating
[22] = read-out: Blackgrass plant response rating

## CN1CC[C@H](c2cccc(C(F)(F)F)c2)[C@@H](C(=O)Nc2cccc(F)c2Cl)C1=O [Compound 1158]
[1]
  pest or weed control at 125 g/ha: 60%
  pest or weed control at 500 g/ha: 70%
[2]
  pest or weed control at 125 g/ha: 30%
  pest or weed control at 500 g/ha: 30%
[3]
  pest or weed control at 125 g/ha: 90%
  pest or weed control at 500 g/ha: 100%
[4]
  pest or weed control at 125 g/ha: 0%
  pest or weed control at 500 g/ha: 0%
[5]
  pest or weed control at 125 g/ha: 0%
  pest or weed control at 500 g/ha: 0%
[6]
  pest or weed control at 125 g/ha: 100%
  pest or weed control at 500 g/ha: 100%
[7]
  pest or weed control at 125 g/ha: 30%
  pest or weed control at 500 g/ha: 50%
[8]; visual injury vs untreated controls after approx. 10 d, 0 = no effect, 100 = complete control, read-out: Kochia plant response rating (0 to 100 scale)
  pest or weed control at 125 g/ha: 0%
[8]; [17]
  pest or weed control at 500 g/ha: 0%
[9]; visual injury vs untreated controls after approx. 10 d, 0 = no effect, 100 = complete control, read-out: Barnyardgrass plant response rating (0 to 100 scale)
  pest or weed control at 125 g/ha: 90%
[9]; [18]
  pest or weed control at 500 g/ha: 90%
[10]; visual injury vs untreated controls after approx. 10 d, 0 = no effect, 100 = complete control, read-out: Corn plant response rating (0 to 100 scale)
  plant injury at 125 g/ha: 20%
[10]; [19]
  plant injury at 500 g/ha: 60%
[11]
  plant injury at 125 g/ha: 30%
  plant injury at 500 g/ha: 50%
[12]
  pest or weed control at 125 g/ha: 0%
  pest or weed control at 500 g/ha: 0%
[13]; visual injury vs untreated controls after approx. 10 d, 0 = no effect, 100 = complete control, read-out: Galium plant response rating (0 to 100 scale)
  pest or weed control at 125 g/ha: 20%
[13]; [20]
  pest or weed control at 500 g/ha: 30%
[14]
  pest or weed control at 125 g/ha: 0%
  pest or weed control at 500 g/ha: 0%
[15]; visual injury vs untreated controls after approx. 10 d, 0 = no effect, 100 = complete control, read-out: Foxtail, Giant plant response rating (0 to 100 scale)
  pest or weed control at 125 g/ha: 80%
[15]; [21]
  pest or weed control at 500 g/ha: 80%
[16]; visual injury vs untreated controls after approx. 10 d, 0 = no effect, 100 = complete control, read-out: Blackgrass plant response rating (0 to 100 scale)
  pest or weed control at 125 g/ha: 20%
[16]; [22]
  pest or weed control at 500 g/ha: 40%

## CN1C[C@H](c2ccc(C(F)(F)F)cc2)[C@@](F)(C(=O)Nc2cccc(F)c2F)C1=O (racemic) [Compound 1151]
[1]
  pest or weed control at 125 g/ha: 70%
  pest or weed control at 500 g/ha: 70%
[2]
  pest or weed control at 125 g/ha: 70%
  pest or weed control at 500 g/ha: 80%
[3]
  pest or weed control at 125 g/ha: 90%
  pest or weed control at 500 g/ha: 100%
[4]
  pest or weed control at 125 g/ha: 80%
  pest or weed control at 500 g/ha: 100%
[5]
  pest or weed control at 125 g/ha: 0%
  pest or weed control at 500 g/ha: 60%
[6]
  pest or weed control at 125 g/ha: 100%
  pest or weed control at 500 g/ha: 100%
[7]
  pest or weed control at 125 g/ha: 30%
  pest or weed control at 500 g/ha: 50%
[8]; visual injury on 0 to 100 scale (0 no effect, 100 complete control), approx. 10 d, read-out: Kochia plant response rating
  pest or weed control at 125 g/ha: 30%
[8]; [17]
  pest or weed control at 500 g/ha: 60%
[9]; visual injury on 0 to 100 scale (0 no effect, 100 complete control), approx. 10 d, read-out: Barnyardgrass plant response rating
  pest or weed control at 125 g/ha: 80%
[9]; [18]
  pest or weed control at 500 g/ha: 90%
[10]; visual injury on 0 to 100 scale (0 no effect, 100 complete control), approx. 10 d, read-out: Corn plant response rating
  plant injury at 125 g/ha: 60%
[10]; [19]
  plant injury at 500 g/ha: 80%
[11]
  plant injury at 125 g/ha: 40%
  plant injury at 500 g/ha: 60%
[12]
  pest or weed control at 125 g/ha: 20%
  pest or weed control at 500 g/ha: 80%
[13]; visual injury on 0 to 100 scale (0 no effect, 100 complete control), approx. 10 d, read-out: Galium plant response rating
  pest or weed control at 125 g/ha: 20%
[13]; [20]
  pest or weed control at 500 g/ha: 60%
[14]
  pest or weed control at 125 g/ha: 0%
  pest or weed control at 500 g/ha: 30%
[15]; visual injury on 0 to 100 scale (0 no effect, 100 complete control), approx. 10 d, read-out: Foxtail, Giant plant response rating
  pest or weed control at 125 g/ha: 70%
[15]; [21]
  pest or weed control at 500 g/ha: 80%
[16]; visual injury on 0 to 100 scale (0 no effect, 100 complete control), approx. 10 d, read-out: Blackgrass plant response rating
  pest or weed control at 125 g/ha: 30%
[16]; [22]
  pest or weed control at 500 g/ha: 60%
